Reference: article PMC2703642, “PpoR is a conserved unpaired LuxR solo of Pseudomonas putida which binds N-acyl homoserine lactones” (BMC Microbiology, 2009)

The compounds below were run against T1, PpoR (Pseudomonas putida, UniProt Q88E21) (assay: AHL retention in washed E. coli cells expressing PpoR, ethyl acetate extraction, TLC with A. tumefaciens NTL4 (pZLR4) overlay). Conditions: 1 uM AHL in LB, 30 C, IPTG induction 3.5 h; pQE30 vector-only control.
T1 construct: gene PP_4647; full-length, 235 aa [sic] (705 bp ORF); 721-bp fragment with entire ppoR cloned SphI-HindIII in pQE30 (pQEPpoR); expressed in E. coli M15(pRep4); not purified
Assay type: cell-based

T1 sequence (Q88E21 entry or part of it): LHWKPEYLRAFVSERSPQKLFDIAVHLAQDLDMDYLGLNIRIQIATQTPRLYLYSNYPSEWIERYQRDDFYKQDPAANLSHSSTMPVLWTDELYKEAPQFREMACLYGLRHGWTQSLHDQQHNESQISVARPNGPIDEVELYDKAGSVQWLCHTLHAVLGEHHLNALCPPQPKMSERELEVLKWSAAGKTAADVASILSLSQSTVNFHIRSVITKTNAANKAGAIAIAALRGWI

| SMILES | AHL retention in washed E. coli cells expressing PpoR, ethyl acetate extraction, |
| --- | --- |
| CCCC(=O)CC(=O)N[C@H]1CCOC1=O [3-oxo-C6-HSL] | Purification of AHLs from E. coli over-expressing PpoR resulted in detection of 3-oxo-C6-HSL |
| CCCCCC(=O)CC(=O)N[C@H]1CCOC1=O [3-oxo-C8-HSL] | PpoR also exhibited probable binding to 3-oxo-C8-HSL and 3-oxo-C10-HSL, but to a lower extent |
| CCCCCCCC(=O)CC(=O)N[C@H]1CCOC1=O [3-oxo-C10-HSL] | PpoR also exhibited probable binding to 3-oxo-C8-HSL and 3-oxo-C10-HSL, but to a lower extent |
